Source: patent WO2020158863A1, “Combined drug of anthracycline compound-containing micelle preparation with immunostimulant” (priority 2019, dated 2020)
Structures can show the parent of a compound that is named as a salt.

Experiments:
[1] = system: KPC cells; experiment: ICD marker expression, flow cytometry, KPC cells (Experimental Example 13-2); format: cell-based, mouse; conditions: 24 h, Fig. 21; for HSP70 level / HSP90 level / calreticulin level: 1 μg/mL or 5 μg/mL
[2] = system: mouse pancreatic cancer cells KPC; experiment: IC50 for mouse pancreatic cancer cells KPC (Experimental Example 13-1); format: cell-based; conditions: Pancreatic cancer cell
[3] = system: GL261-luc tumor; experiment: Orthotopic GL261-luc tumor in wild type mice (Experimental Example 7-1); format: in vivo, mouse; conditions: wild type C57/BL6; 5 mg/kg Epi equivalent
[4] = system: various cancer cells (MCA205, AB12, GL261, CT2A, LL2, C26); experiment: IC50 against various cancer cells (Experimental Example 11-1); format: cell-based
[5] = system: fibrosarcoma cell carcinoma line (MCA205, Sarcoma180, NIH3T3, HT1080); experiment: IC50 against fibrosarcoma cell lines (Experimental Example 12-1); format: cell-based
[6] = system: CT2A cells; experiment: Cytotoxic activity (IC50), CT2A cells (Experimental Example 6); format: cell-based, mouse; conditions: PTEN-negative; 48 h; Fig. 8F
[7] = system: mouse glioblastoma (GBM) cells GL261; experiment: in vitro cytotoxicity assay (Experimental Example 3); format: cell-based; conditions: 3 h exposure, 48 h incubation; Fig. 3
[8] = system: GL261 cells; experiment: Cytotoxic activity (IC50), GL261 cells (Experimental Example 6)
[9] = system: PD-L1; experiment: PD-L1 expression in CT2A tumors, flow cytometry (Experimental Example 10); format: in vivo, mouse; conditions: 8 days after single tail vein injection, 6 mg/kg Epi equivalent; Fig. 16
[10] = system: GL261-luc tumor; experiment: Orthotopic GL261-luc tumor in nude mice (Experimental Example 7-1); format: in vivo, mouse; conditions: nude BALB/c; 5 mg/kg Epi equivalent
[11] = system: GL261 cells; experiment: ICD marker expression on cell surface, flow cytometry, GL261 cells; format: cell-based, mouse; conditions: 24 h; negative control; Fig. 8G

COc1cccc2c1C(=O)c1c(O)c3c(c(O)c1C2=O)C[C@@](O)(C(=O)CO)C[C@@H]3O[C@H]1C[C@H](N)[C@H](O)[C@H](C)O1 [DOX, doxorubicin hydrochloride]
HSP70 level [1]: significantly increased | HSP90 level [1]: significantly increased | calreticulin level [1]: significantly increased | IC50 [2]: ≤ 2 µg/mL

COc1cccc2c1C(=O)c1c(O)c3c(c(O)c1C2=O)C[C@@](O)(C(=O)CO)C[C@@H]3O[C@H]1C[C@H](N)[C@@H](O)[C@H](C)O1 [Epi, Epirubicin hydrochloride]
tumor growth rate / tumor-derived luminescence [3]: the tumor growth rate was not suppressed | IC50 [4]: ≤ 1 µg/mL | IC50 [5]: ≤ 2 µg/mL | cytotoxic activity [6]: high activity against PTEN-negative CT2A cells, comparable to the activity against GL261 cells | in vitro cytotoxicity [7]: high in vitro cytotoxicity | IC50 ([8]; Mus musculus, GL261, 48 h): < 1 µg/mL | cytotoxic activity ([8]; PTEN-positive, 48 h, Fig. 8E): high cytotoxic activity | HSP70 level [1]: significantly increased | HSP90 level [1]: significantly increased | calreticulin level [1]: significantly increased | expression level of PD-L1 in tumor cells [9]: no such reduction in expression levels occurred | tumor growth rate [10]: the tumor growth rate was not suppressed

CCc1c2c(nc3ccc(OC(=O)N4CCC(N5CCCCC5)CC4)cc13)-c1cc3c(c(=O)n1C2)COC(=O)[C@]3(O)CC [irinotecan]
ICD marker level ([1]; any concentration): did not significantly increase the marker at any concentration

[NH2][Pt]([NH2])([Cl])[Cl] [CDDP, Cisplatin]
ICD marker level [11]: did not significantly increase the marker
